Measurements reported in the CheMixHub ionic liquid set.

Test: xn = mol fraction of the nth substance listed
Settings: 100 kPa

CCC(=O)[O-].CCOCCn1cc[n+](C)c1 + O
Settings	electrical conductivity [S/m]	viscosity [mPa·s]
288.15 K, x1 = 0.8211	0.244	56.95
288.15 K, x1 = 0.85	0.209	62.86
288.15 K, x1 = 0.8812	0.178	69.98
288.15 K, x1 = 0.9123	0.148	77.3
288.15 K, x1 = 0.9441	0.118	85.4
288.15 K, x1 = 1	0.067	96.2
293.15 K, x1 = 0.8211	0.285	43.77
293.15 K, x1 = 0.85	0.255	48.37
293.15 K, x1 = 0.8812	0.228	53.31
293.15 K, x1 = 0.9123	0.202	58.97
293.15 K, x1 = 0.9441	0.177	64.74
293.15 K, x1 = 1	0.132	72.77
298.15 K, x1 = 0.8211	0.332	34.4
298.15 K, x1 = 0.85	0.305	37.68
298.15 K, x1 = 0.8812	0.28	41.51
298.15 K, x1 = 0.9123	0.258	45.4
298.15 K, x1 = 0.9441	0.236	49.8
298.15 K, x1 = 1	0.196	55.65
303.15 K, x1 = 0.8211	0.425	27.21
303.15 K, x1 = 0.85	0.399	29.76
303.15 K, x1 = 0.8812	0.371	32.63
303.15 K, x1 = 0.9123	0.349	35.7
303.15 K, x1 = 0.9441	0.326	39.01
303.15 K, x1 = 1	0.285	43.51
308.15 K, x1 = 0.8211	0.539	22.04
308.15 K, x1 = 0.85	0.507	23.97
308.15 K, x1 = 0.8812	0.478	26.44
308.15 K, x1 = 0.9123	0.451	28.78
308.15 K, x1 = 0.9441	0.425	30.96
308.15 K, x1 = 1	0.378	34.6
313.15 K, x1 = 0.8211	0.647	17.65
313.15 K, x1 = 0.85	0.617	19.48
313.15 K, x1 = 0.8812	0.588	21.34
313.15 K, x1 = 0.9123	0.561	22.96
313.15 K, x1 = 0.9441	0.534	24.58
313.15 K, x1 = 1	0.488	27.45
318.15 K, x1 = 0.8211	0.775	14.34
318.15 K, x1 = 0.85	0.747	15.58
318.15 K, x1 = 0.8812	0.718	17.15
318.15 K, x1 = 0.9123	0.691	18.49
318.15 K, x1 = 0.9441	0.664	19.86
318.15 K, x1 = 1	0.619	22.11

CCCCCCCC[n+]1ccccc1.[Br-] + O
Settings	electrical conductivity [S/m]
288.15 K, x1 = 0.0006303	0.31
288.15 K, x1 = 0.001206	0.47
288.15 K, x1 = 0.001745	0.62
288.15 K, x1 = 0.002301	0.78
288.15 K, x1 = 0.00309	0.98
288.15 K, x1 = 0.003806	1.12
288.15 K, x1 = 0.004431	1.22
288.15 K, x1 = 0.005002	1.29
288.15 K, x1 = 0.005537	1.35
288.15 K, x1 = 0.006018	1.4
288.15 K, x1 = 0.006445	1.44
288.15 K, x1 = 0.006854	1.48
288.15 K, x1 = 0.007227	1.51
288.15 K, x1 = 0.007547	1.54
293.15 K, x1 = 0.0006303	0.34
293.15 K, x1 = 0.001206	0.54
293.15 K, x1 = 0.001745	0.7
293.15 K, x1 = 0.002301	0.88
293.15 K, x1 = 0.00309	1.11
293.15 K, x1 = 0.003788	1.27
293.15 K, x1 = 0.004431	1.39
293.15 K, x1 = 0.005002	1.47
293.15 K, x1 = 0.00552	1.54
293.15 K, x1 = 0.006	1.59
293.15 K, x1 = 0.006445	1.65
293.15 K, x1 = 0.006837	1.69
293.15 K, x1 = 0.00721	1.73
293.15 K, x1 = 0.007547	1.76
298.15 K, x1 = 0.0006303	0.38
298.15 K, x1 = 0.001206	0.6
298.15 K, x1 = 0.001745	0.79
298.15 K, x1 = 0.002301	0.99
298.15 K, x1 = 0.00309	1.25
298.15 K, x1 = 0.003788	1.43
298.15 K, x1 = 0.004431	1.57
298.15 K, x1 = 0.005002	1.67
298.15 K, x1 = 0.00552	1.75
298.15 K, x1 = 0.006	1.81
298.15 K, x1 = 0.006428	1.87
298.15 K, x1 = 0.006837	1.93
298.15 K, x1 = 0.00721	1.98
298.15 K, x1 = 0.007529	2.02
303.15 K, x1 = 0.0006303	0.45
303.15 K, x1 = 0.001206	0.67
303.15 K, x1 = 0.001745	0.88
303.15 K, x1 = 0.002301	1.1
303.15 K, x1 = 0.00309	1.39
303.15 K, x1 = 0.003788	1.6
303.15 K, x1 = 0.004413	1.75
303.15 K, x1 = 0.004985	1.87
303.15 K, x1 = 0.005502	1.98
303.15 K, x1 = 0.005983	2.07
303.15 K, x1 = 0.006428	2.14
303.15 K, x1 = 0.006819	2.21
303.15 K, x1 = 0.007192	2.27
303.15 K, x1 = 0.007529	2.32
308.15 K, x1 = 0.0006303	0.48
308.15 K, x1 = 0.001206	0.73
308.15 K, x1 = 0.001745	0.97
308.15 K, x1 = 0.002283	1.21
308.15 K, x1 = 0.003072	1.54
308.15 K, x1 = 0.00377	1.77
308.15 K, x1 = 0.004413	1.98
308.15 K, x1 = 0.004985	2.13
308.15 K, x1 = 0.005502	2.23
308.15 K, x1 = 0.005983	2.33
308.15 K, x1 = 0.00641	2.42
308.15 K, x1 = 0.006819	2.49
308.15 K, x1 = 0.007192	2.56
308.15 K, x1 = 0.007512	2.62
